Data as given in ChEMBL document CHEMBL1153497, “Development of antitubercular compounds based on a 4-quinolylhydrazone scaffold. Further structure-activity relationship studies” (Bioorg Med Chem, 2009).
≈ marks a conversion by molar mass, not a printed value. Where “and” joins values, the source holds several entries; their conditions need not be identical. Identical values can stand only once.

What was measured:
[1] = tested on: Vero; assay: Cytotoxicity against african green monkey Vero cells after 72 hrs by MTT assay; format: cell-based; conditions: Chlorocebus sabaeus
[2] = tested on: Mycobacterium tuberculosis; assay: Antitubercular activity against Mycobacterium tuberculosis H37Rv at 6.25 ug/mL by broth microdilution method; format: functional
[3] = Selectivity index, IC50 for african green monkey Vero cells to MIC for Mycobacterium tuberculosis H37Rv; format: functional
[4] = tested on: Mycobacterium tuberculosis; assay: Antitubercular activity against Mycobacterium tuberculosis H37Rv by microplate alamar blue assay; format: functional
[5] = tested on: Mycobacterium tuberculosis; assay: Antitubercular activity against Mycobacterium tuberculosis isolate UC0802 by microplate alamar blue assay; format: functional
[6] = tested on: Mycobacterium tuberculosis; assay: Antitubercular activity against Mycobacterium tuberculosis isolate UC0801 by microplate alamar blue assay; format: functional
[7] = tested on: Mycobacterium tuberculosis; assay: Antitubercular activity against Mycobacterium tuberculosis H37Rv assessed as CFU treated on day 7 measured after 14 days; format: functional, organism-based
[8] = tested on: Vero; assay: Cytotoxicity against african green monkey Vero cells at > 2.5 ug/mL after 72 hrs by MTT assay; format: cell-based; conditions: Chlorocebus sabaeus
[9] = tested on: Mycobacterium tuberculosis; assay: Antitubercular activity against Mycobacterium tuberculosis isolate UC0803 by microplate alamar blue assay; format: functional
[10] = tested on: Mycobacterium tuberculosis; assay: Antitubercular activity against Mycobacterium tuberculosis isolate UC0804 by microplate alamar blue assay; format: functional

Row | Structure (SMILES) | inhibition at 6.25 µg/mL [2] [%] | MIC [4] | other results
1 | COc1ccc2c(N/N=C/c3ccc(O)cc3)ccnc2c1 | 100 | 5.3 µM | IC50 [1]: 3.66 µg/mL (≈ 12.5 µM); Selectivity Index [3]: 2.53
2 | CCOc1ccc2c(N/N=C/c3ccncc3)cc(C)nc2c1 | 78 | – | –
3 | COc1ccc2cc(/C=N/Nc3cc(C)nc4cc5c(cc34)OCO5)ccc2c1 | 100 | – | –
4 | COc1ccc2cc(/C=N/Nc3ccnc4cc(OC)ccc34)ccc2c1 | 100 | 0.6 µM | IC50 [1]: 0.211 µg/mL (≈ 0.59 µM); Selectivity Index [3]: 1.05
5 | Cc1cc(N/N=C/c2ccc3c(c2)OCO3)c2cc3c(cc2n1)OCO3 | 100 | 4.5 µM | IC50 [1]: 0.22 µg/mL (≈ 0.63 µM); Selectivity Index [3]: 0.14
6 | CCOc1ccc2c(N/N=C/c3ccc4c(c3)OCO4)cc(C)nc2c1 | 98 | 9 µM | –
7 | CCOc1ccc2c(N/N=C/c3ccncc3)ccnc2c1 | 26 | – | –
8 | C(=N\Nc1ccnc2cc3c(cc12)OCO3)/C1CCCCC1 | 74 | – | –
9 | CCOc1ccc2c(N/N=C/c3ccc(OC)cc3)ccnc2c1 | 100 | 9.7 µM | –
10 | COc1ccc2c(N/N=C/c3ccc4ccccc4c3)ccnc2c1 | 100 | 0.6 µM | IC50 [1]: 0.454 µg/mL (≈ 1.39 µM); Selectivity Index [3]: 2.27
11 | COc1cccc2c(N/N=C/c3ccc4c(c3)OCO4)cc(C)nc12 | 95 | – | –
12 | COc1ccc(/C=N/Nc2ccnc3cc4c(cc23)OCO4)cc1 | 100 | 4.8 µM | –
13 | Cc1cc(N/N=C/c2cccc(O)c2)c2cc3c(cc2n1)OCO3 | 100 | – | –
14 | COc1ccc2ccccc2c1/C=N/Nc1cc(C)nc2cc3c(cc12)OCO3 | 100 | – | –
15 | Cc1cc(N/N=C/c2ccnc3ccccc23)c2cc3c(cc2n1)OCO3 | 100 | – | –
16 | COc1cccc2c(N/N=C/c3ccc4ccccc4n3)ccnc12 | 99 | 4.8 µM | IC50 [1]: 1.68 µg/mL (≈ 5.12 µM); Selectivity Index [3]: 1.08
17 | COc1ccc2c(N/N=C/c3ccnc4ccccc34)ccnc2c1 | 100 | 9.5 µM | –
18 | COc1cccc(/C=N/Nc2cc(C)nc3cc4c(cc23)OCO4)c1 | 100 | 9.3 µM | –
19 | COc1ccc2nc(C)cc(N/N=C/c3ccc(N(C)C)cc3)c2c1 | 100 | 9.4 µM | –
20 | Cc1cc(N/N=C/c2ccccc2)c2cc3c(cc2n1)OCO3 | 100 | 2.6 µM and 0.5 µg/mL | MIC [5]: 1 µg/mL (≈ 3.28 µM); MIC [6]: 0.12 µg/mL (≈ 0.393 µM); Activity [7]: Dose-dependent effect; Activity [8]: Toxic; MIC [9]: 0.25 µg/mL (≈ 0.819 µM); MIC [10]: 0.12 µg/mL (≈ 0.393 µM)

Row | Structure (SMILES) | inhibition at 6.25 µg/mL [2] [%] | MIC [4] | other results
21 | Cc1cc(N/N=C/c2ccc3ccccc3c2)c2cc3c(cc2n1)OCO3 | 100 | – | –
22 | COc1ccc(/C=N/Nc2ccnc3ccc(OC)cc23)cc1 | 100 | 10.2 µM | –
23 | COc1ccc2nc(C)cc(N/N=C/c3ccc4c(c3)OCO4)c2c1 | 100 | 4.8 µM | –
24 | CCOc1ccc2c(N/N=C/c3ccc(OC)cc3)cc(C)nc2c1 | 20 | – | –
25 | Cc1cc(N/N=C/c2ncc[nH]2)c2cc3c(cc2n1)OCO3 | 100 | 5.3 µg/mL | IC50 [1]: > 100 µg/mL; Selectivity Index [3]: >66
26 | COc1ccc2nccc(N/N=C/c3ccc(N(C)C)cc3)c2c1 | 100 | 19.5 µM | –
27 | COc1cccc2c(N/N=C/c3ccccc3)ccnc12 | 99 | 11.3 µM | –
28 | Cc1cc(N/N=C/c2ccccn2)c2cc3c(cc2n1)OCO3 | 74 | – | –
29 | COc1ccc2c(N/N=C/c3ccccc3)ccnc2c1 | 100 | 16.4 µM | –
30 | COc1ccc2c(N/N=C/c3cccc(O)c3)ccnc2c1 | 100 | 2.7 µM | IC50 [1]: 1.09 µg/mL (≈ 3.72 µM); Selectivity Index [3]: 1.59
31 | COc1cccc2c(N/N=C/c3ccc(N(C)C)cc3)ccnc12 | 100 | 19.5 µM | –
32 | COc1ccc2c(N/N=C/c3ccc4ccccc4n3)cc(C)nc2c1 | 100 | 4.6 µM | IC50 [1]: 0.12 µg/mL (≈ 0.35 µM); Selectivity Index [3]: 0.08
33 | COc1cccc2c(N/N=C/c3cccc4ccccc34)cc(C)nc12 | 99 | 9.3 µM | –
34 | Cc1cc(N/N=C/C2CCCCC2)c2cc3c(cc2n1)OCO3 | 9 | – | –
35 | COc1ccc(/C=N/Nc2cc(C)nc3cc4c(cc23)OCO4)c2ccccc12 | 100 | 4 µM | IC50 [1]: 0.24 µg/mL (≈ 0.623 µM); Selectivity Index [3]: 0.15
36 | CCOc1ccc2c(N/N=C/c3ccc4c(c3)OCO4)ccnc2c1 | 48 | – | –
37 | Cc1cc(N/N=C/c2ccc(O)cc2)c2cc3c(cc2n1)OCO3 | 100 | – | –
38 | CCN(CC)c1ccc(/C=N/Nc2cc(C)nc3cc4c(cc23)OCO4)cc1 | 100 | 8.3 µM | –
39 | Cc1cc(N/N=C/c2ccncc2)c2cc3c(cc2n1)OCO3 | 87 | – | –
40 | COc1ccc2c(N/N=C/c3ccc4ccccc4n3)ccnc2c1 | 99 | 9.5 µM | –

Row | Structure (SMILES) | inhibition at 6.25 µg/mL [2] [%] | MIC [4] | other results
41 | CO[C@H]1/C=C/O[C@@]2(C)Oc3c(C)c(O)c4c(O)c(c(/C=N/N5CCN(C)CC5)c(O)c4c3C2=O)NC(=O)/C(C)=C\C=C\[C@H](C)[C@H](O)[C@@H](C)[C@@H](O)[C@@H](C)[C@H](OC(C)=O)[C@@H]1C [RIFAMPIN] | – | 0.037 µM | –
42 | COc1ccc2c(N/N=C/c3ccc4c(c3)OCO4)ccnc2c1 | 100 | 9.7 µM | –
43 | COc1ccc2nccc(N/N=C/C3CCCCC3)c2c1 | 99 | 11.1 µM | IC50 [1]: 5.03 µg/mL (≈ 17.8 µM); Selectivity Index [3]: 3.44
44 | COc1ccc2c(N/N=C/c3ccc(N(C)C)cc3)ccnc2c1 | 100 | 4.9 µM | IC50 [1]: 0.26 µg/mL (≈ 0.811 µM); Selectivity Index [3]: 0.17
45 | COc1cccc2c(N/N=C/c3ccc4ccccc4n3)cc(C)nc12 | 100 | 4.7 µM | IC50 [1]: 3.11 µg/mL (≈ 9.08 µM); Selectivity Index [3]: 1.99
46 | COc1ccc(/C=N/Nc2cc(C)nc3cc(OC)ccc23)cc1 | 99 | 19.5 µM | –
47 | COc1ccc2c(N/N=C/c3ccc[nH]3)ccnc2c1 | 99 | 11.8 µM | –
48 | COc1ccc(/C=N/Nc2cc(C)nc3cc4c(cc23)OCO4)cc1 | 100 | 9.3 µM | –
49 | NNC(=O)c1ccncc1 [ISONIAZID] | – | 0.36 µM and 0.05 µg/mL | MIC [5]: 0.25 µg/mL (≈ 1.82 µM); MIC [6]: 0.05 µg/mL (≈ 0.365 µM); MIC [9]: 0.05 µg/mL (≈ 0.365 µM); MIC [10]: 0.05 µg/mL (≈ 0.365 µM)
50 | COc1ccc2c(N/N=C/c3ccnc4ccccc34)cc(C)nc2c1 | 100 | 4.6 µM | –
51 | COc1ccc2nccc(N/N=C/c3ccc4c(c3)OCO4)c2c1 | 100 | 2.4 µM | –
52 | COc1ccc(/C=N/Nc2cc(C)nc3ccc(OC)cc23)cc1 | 100 | 4.8 µM | –
53 | COc1cccc2c(N/N=C/c3ccc4c(c3)OCO4)ccnc12 | 31 | – | –
54 | COc1ccc2c(/C=N/Nc3ccnc4cc(OC)ccc34)ccnc2c1 | 100 | 2.2 µM | –
55 | COc1cccc2c(N/N=C/c3cccc4ccccc34)ccnc12 | 100 | – | –
56 | COc1ccc(/C=N/Nc2ccnc3cc(OC)ccc23)cc1 | 100 | 9.8 µM | –
57 | COc1cccc2c(N/N=C/c3ccnc4ccccc34)cc(C)nc12 | 98 | 9.1 µM | –
58 | Cc1cc(N/N=C/c2ccc[nH]2)c2cc3c(cc2n1)OCO3 | 100 | 10.6 µM | –
59 | Cc1cc(N/N=C/c2ccc(F)cc2)c2cc3c(cc2n1)OCO3 | 100 | 19.3 µM | –
60 | COc1ccc(/C=N/Nc2cc(C)nc3cc4c(cc23)OCO4)cc1OC | 100 | – | –
